The source of these data is patent publication EP2508171B1, “Pharmaceutical magnetic nano-particle composition” (Universitätsklinikum Erlangen, priority 2011, dated 2012).

A short description of this data set: Biodistribution and biodegradation after i.v. application (HPLC of MTO, SQUID/MRX of iron oxide). It counts as in vivo, New Zealand White Rabbits. The note with it: for concentration at 24 h: New Zealand White, rabbit, iv, regular systemic dose of pure MTO (10 mg MTO/m2 body surface), n=6, HPLC. As for the experimental part:
For the animal experiments New Zealand White Rabbits were used. The animals, weighing about 4.5 - 5.2 kg, were treated (i.v.) with ferrofluid bound MTO containing a drug amount of 10% compared to the regular systemic dose which requires 10 mg MTO/m2 body surface (n=5). The other study group (n=6) received the regular systemic dose of pure MTO. After 24h hours the animals were sacrificed and the organs harvested. Complete organs of liver and kidneys were processed and MTO was extracted for HPLC-analysis. Tissue homogenates have also been measured by SQUID.

Read-outs that look alike come from different tables or passages of the source.

For the compound `O=C1c2c(O)ccc(O)c2C(=O)c2c(NCCNCCO)ccc(NCCNCCO)c21` [pure MTO, mitoxantron], the concentration at 24 h (kidney, read-out: MTO concentration in kidneys) turned out to be 8500 ng/g and the concentration at 24 h (liver, read-out: MTO concentration in liver tissue) was 190 ng/g. The “MTO enrichment in kidneys relative to liver” value (pure i.v. injection of MTO, regular systemic dose, 24h) turned out to be 44 fold.
